Results: ChEMBL document CHEMBL3046133, “Susceptibility of field populations of Spodoptera litura (Fabricius) (Lepidoptera: Noctuidae) in China to chlorantraniliprole and the activities of detoxification enzymes” (2012)

What was measured:
Assay type in all cases: functional
Spodoptera litura [1] = experiment: Insecticidal activity against third to fifth-instar larval stage of Spodoptera litura field strain HH09 assessed as mortality after 72 hr by diet incorporation bioassay
Spodoptera litura [2] = experiment: Resistance factor, ratio of LC50 for third to fifth-instar larval stage of Spodoptera litura field strain HF10 to LC50 for larval stage of Spodoptera litura laboratory strain XW-Sus
Spodoptera litura [3] = experiment: Resistance factor, ratio of LC50 for third to fifth-instar larval stage of Spodoptera litura field strain SH10 to LC50 for larval stage of Spodoptera litura laboratory strain XW-Sus
Spodoptera litura [4] = experiment: Resistance factor, ratio of LC50 for third to fifth-instar larval stage of Spodoptera litura field strain HF08 to LC50 for larval stage of Spodoptera litura laboratory strain XW-Sus
Spodoptera litura [5] = experiment: Insecticidal activity against larval stage of Spodoptera litura laboratory strain XW-Sus assessed as mortality after 72 hr by diet incorporation bioassay
Spodoptera litura [6] = experiment: Insecticidal activity against third to fifth-instar larval stage of Spodoptera litura field strain SH10 assessed as mortality after 72 hr by diet incorporation bioassay
Spodoptera litura [7] = experiment: Insecticidal activity against third to fifth-instar larval stage of Spodoptera litura field strain NJ10 assessed as mortality after 72 hr by diet incorporation bioassay
Spodoptera litura [8] = experiment: Insecticidal activity against third to fifth-instar larval stage of Spodoptera litura field strain HF10 assessed as mortality after 72 hr by diet incorporation bioassay
Spodoptera litura [9] = experiment: Resistance factor, ratio of LC50 for third to fifth-instar larval stage of Spodoptera litura field strain HX09 to LC50 for larval stage of Spodoptera litura laboratory strain XW-Sus
Spodoptera litura [10] = experiment: Resistance factor, ratio of LC50 for third to fifth-instar larval stage of Spodoptera litura field strain NN10 to LC50 for larval stage of Spodoptera litura laboratory strain XW-Sus
Spodoptera litura [11] = experiment: Resistance factor, ratio of LC50 for second to fifth-instar larval stage of Spodoptera litura field strain DG10 to LC50 for larval stage of Spodoptera litura laboratory strain XW-Sus
Spodoptera litura [12] = experiment: Insecticidal activity against third to fifth-instar larval stage of Spodoptera litura field strain NJ09 assessed as mortality after 72 hr by diet incorporation bioassay
Spodoptera litura [13] = experiment: Insecticidal activity against third to fifth-instar larval stage of Spodoptera litura field strain HF08 assessed as mortality after 72 hr by diet incorporation bioassay
Spodoptera litura [14] = experiment: Insecticidal activity against second to fifth-instar larval stage of Spodoptera litura field strain HZ10 assessed as mortality after 72 hr by diet incorporation bioassay
Spodoptera litura [15] = experiment: Insecticidal activity against second to fifth-instar larval stage of Spodoptera litura field strain ZZ10 assessed as mortality after 72 hr by diet incorporation bioassay
Spodoptera litura [16] = experiment: Resistance factor, ratio of LC50 for second to fifth-instar larval stage of Spodoptera litura field strain HZ10 to LC50 for larval stage of Spodoptera litura laboratory strain XW-Sus
Spodoptera litura [17] = experiment: Resistance factor, ratio of LC50 for third to fifth-instar larval stage of Spodoptera litura field strain HH09 to LC50 for larval stage of Spodoptera litura laboratory strain XW-Sus
Spodoptera litura [18] = experiment: Resistance factor, ratio of LC50 for third to fifth-instar larval stage of Spodoptera litura field strain NJ10 to LC50 for larval stage of Spodoptera litura laboratory strain XW-Sus
Spodoptera litura [19] = experiment: Resistance factor, ratio of LC50 for second to fifth-instar larval stage of Spodoptera litura field strain SZ10 to LC50 for larval stage of Spodoptera litura laboratory strain XW-Sus
Spodoptera litura [20] = experiment: Resistance factor, ratio of LC50 for third to fifth-instar larval stage of Spodoptera litura field strain NJ09 to LC50 for larval stage of Spodoptera litura laboratory strain XW-Sus
Spodoptera litura [21] = experiment: Insecticidal activity against second to fifth-instar larval stage of Spodoptera litura field strain DG10 assessed as mortality after 72 hr by diet incorporation bioassay
Spodoptera litura [22] = experiment: Resistance factor, ratio of LC50 for second to fifth-instar larval stage of Spodoptera litura field strain ZZ10 to LC50 for larval stage of Spodoptera litura laboratory strain XW-Sus
Spodoptera litura [23] = experiment: Insecticidal activity against second to fifth-instar larval stage of Spodoptera litura field strain SZ10 assessed as mortality after 72 hr by diet incorporation bioassay
Spodoptera litura [24] = experiment: Insecticidal activity against third to fifth-instar larval stage of Spodoptera litura field strain NN10 assessed as mortality after 72 hr by diet incorporation bioassay
Spodoptera litura [25] = experiment: Insecticidal activity against third to fifth-instar larval stage of Spodoptera litura field strain HX09 assessed as mortality after 72 hr by diet incorporation bioassay

What does the source list for `CNC(=O)c1cc(Cl)cc(C)c1NC(=O)c1cc(Br)nn1-c1ncccc1Cl` [CHLORANTRANILIPROLE]?
LC50 (Spodoptera litura [1]): 39.54 ugAi/L; LC90 (Spodoptera litura [1]): 132.55 ugAi/L; RatioLC50 (Spodoptera litura [2]): 17.9; RatioLC50 (Spodoptera litura [3]): 11.2; RatioLC50 (Spodoptera litura [4]): 16.9; LC50 (Spodoptera litura [5]): 4.2 ugAi/L; LC90 (Spodoptera litura [5]): 17.82 ugAi/L; LC50 (Spodoptera litura [6]): 47.17 ugAi/L; LC90 (Spodoptera litura [6]): 133.09 ugAi/L; LC50 (Spodoptera litura [7]): 37.78 ugAi/L; LC90 (Spodoptera litura [7]): 156.29 ugAi/L; LC50 (Spodoptera litura [8]): 75.51 ugAi/L; LC90 (Spodoptera litura [8]): 262.61 ugAi/L; RatioLC50 (Spodoptera litura [9]): 23.8; RatioLC50 (Spodoptera litura [10]): 7.8; RatioLC50 (Spodoptera litura [11]): 23.3; LC50 (Spodoptera litura [12]): 28.41 ugAi/L; LC90 (Spodoptera litura [12]): 108.24 ugAi/L; LC50 (Spodoptera litura [13]): 71.58 ugAi/L; LC90 (Spodoptera litura [13]): 386.57 ugAi/L; LC50 (Spodoptera litura [14]): 80.41 ugAi/L; LC90 (Spodoptera litura [14]): 296.76 ugAi/L; LC50 (Spodoptera litura [15]): 78.89 ugAi/L; LC90 (Spodoptera litura [15]): 269.74 ugAi/L; RatioLC50 (Spodoptera litura [16]): 19.2; RatioLC50 (Spodoptera litura [17]): 9.4; RatioLC50 (Spodoptera litura [18]): 9; RatioLC50 (Spodoptera litura [19]): 24.4; RatioLC50 (Spodoptera litura [20]): 6.8; LC50 (Spodoptera litura [21]): 98.81 ugAi/L; LC90 (Spodoptera litura [21]): 358.16 ugAi/L; RatioLC50 (Spodoptera litura [22]): 18.9; LC50 (Spodoptera litura [23]): 102.48 ugAi/L; LC90 (Spodoptera litura [23]): 354.52 ugAi/L; LC50 (Spodoptera litura [24]): 32.85 ugAi/L; LC90 (Spodoptera litura [24]): 81.75 ugAi/L; LC50 (Spodoptera litura [25]): 100.3 ugAi/L; LC90 (Spodoptera litura [25]): 431.76 ugAi/L
